Assay [1] concerns Canis familiaris. Briefly: Cardiotonic activity by increasing heart rate (HR) in phenobarbital-anesthetized dogs after intravenous administration. Type of assay: functional, Canis lupus familiaris.
For assay [2], the system named is Canis familiaris. The assay can be described thus: Cardiotonic activity in increasing contractility in phenobarbital-anesthetized dogs after intravenous administration. Type of assay: functional. To be noted: Canis lupus familiaris.
Assay [3] has as its system Canis familiaris. The assay can be described thus: Cardiotonic activity by decreasing mean arterial blood pressure(MAP) in phenobarbital-anesthetized dogs after intravenous administration. Type of assay: functional, Canis lupus familiaris, Artery.
For another assay, the target named is Phosphodiesterase 3 (Homo sapiens, UniProt Q14432+Q13370). The assay can be described thus: Cardiotonic effect by inhibition of cAMP phosphodiesterase (PDE III). The format is protein assay, Canis lupus familiaris.

In general, ED50 refers to the dose that gives a 50% effect, or the effect in half of the subjects. One may read the IC50 as the concentration that inhibits the measured activity by half. With `CCCc1nc(O)c(C#N)cc1-c1ccncc1`, the Heart rate with Canis familiaris [1] was determined as 25 beats min-1. Besides, in the assay with Canis familiaris [2], the ED50 worked out at 0.748 mg/kg. Further, in the assay with Canis familiaris [3], the MAP came to 20 mmHg. Besides, the IC50 against Phosphodiesterase 3 worked out at 38 µM.

`Cc1nc(O)c(N)cc1-c1ccncc1` gave a Heart rate in the assay with Canis familiaris [1] of 9 beats min-1. This molecule came in with an ED50 in the assay on Canis familiaris [2] of 0.055 mg/kg. Further, the MAP in the assay with Canis familiaris [3] was 10 mmHg. On Phosphodiesterase 3, the IC50 came to 31 µM.

`Nc1cc(-c2ccncc2)c[nH]c1=O` [INAMRINONE] showed a Heart rate with Canis familiaris [1] of 13 beats min-1. Also, the ED50 with Canis familiaris [2] was 1.89 mg/kg. The molecule further registered an MAP in the assay with Canis familiaris [3] of 16 mmHg.

`CCc1nc(O)c(C#N)cc1-c1ccncc1` registered a Heart rate in the assay with Canis familiaris [1] of 19 beats min-1. The ED50 in the assay on Canis familiaris [2] amounted to 0.12 mg/kg. This molecule showed an MAP with Canis familiaris [3] of 12 mmHg. Moreover, on Phosphodiesterase 3, the IC50 worked out at 12 µM.

As to `Cc1[nH]c(=O)c(C#N)cc1-c1ccncc1` [MILRINONE], the Heart rate with Canis familiaris [1] was 14 beats min-1. Also, the ED50 in the assay with Canis familiaris [2] came out at 0.037 mg/kg. The MAP in the assay on Canis familiaris [3] was determined as 10 mmHg.

Source of the values: ChEMBL document CHEMBL1123168 (J Med Chem, 1986).
